Converted amounts (≈) assume the structure as drawn.
What was measured:
[1] = system: Klebsiella pneumoniae (K. pneumoniae) 35657; experiment: Antibacterial activity, MIC, K. pneumoniae 35657; format: cell-based; details: Klebsiella pneumoniae
[2] = system: E. coli ELZ4000 (MDR clinical isolate); experiment: Antibacterial activity, MIC, MDR E. coli ELZ4000; format: cell-based, Escherichia coli; details: Escherichia coli; E. coli ELZ4000, MDR clinical isolate; read-out: MIC ELZ4000
[3] = system: quinolone resistant E. coli LZ3111; experiment: Antibacterial activity, MIC, quinolone resistant E. coli LZ3111; format: cell-based, Escherichia coli; details: Escherichia coli, read-out: MIC, LZ3111
From the text: (§1) The antibacterial activity from a microbroth dilution method may be presented as the minimum inhibitory concentration (MIC in […]). The MIC value is the lowest concentration of a drug which prevents macroscopically visible bacterial growth under test conditions.
Mutations in these regions are known to confer a high level resistance to the quinolone class of antibiotics.

[4] = system: resistant K. pneumoniae MXX1232 (MDR clinical isolate); experiment: Antibacterial activity, MIC, resistant K. pneumoniae MXX1232; format: cell-based, Klebsiella pneumoniae; details: Klebsiella pneumoniae; resistant K. pneumoniae MMX1232, MDR clinical isolate; read-out: MIC MMX1232
[5] = system: control Gram-negative E. coli 25922 strain; experiment: Antibacterial activity, microbroth dilution MIC, E. coli 25922; format: cell-based, Escherichia coli; details: Escherichia coli; E. coli 25922, microbroth dilution; read-out: MIC, 25922
[6] = system: super sensitive Gram-negative Escherichia coli (E. coli) BAS849; experiment: Antibacterial activity, microbroth dilution MIC, E. coli BAS849; format: cell-based; details: Escherichia coli; E. coli BAS849, microbroth dilution; read-out: MIC, BAS849
[7] = system: resistant A. baumannii MXX2240 (MDR clinical isolate); experiment: Antibacterial activity, MIC, resistant A. baumannii MXX2240; format: cell-based, Acinetobacter baumannii; details: Acinetobacter baumannii, resistant A. baumannii MMX2240, MDR clinical isolate; read-out: MIC MMX2240
[8] = system: Pseudomonas aeruginosa (P. aeruginosa) 27853; experiment: Antibacterial activity, MIC, P. aeruginosa 27853; format: cell-based; details: Pseudomonas aeruginosa, P. aeruginosa 27853; read-out: MIC 27853
From the text: as §1
Antibacterial activity of test compounds against the Gram-negative bacterium Pseudomonas aeruginosa (P. aeruginosa) 27853 is shown in Table 5.

[9] = system: Gram-positive Staphylococcus aureus (S. aureus) 29213; experiment: Antibacterial activity, microbroth dilution MIC, S. aureus 29213; format: cell-based; details: Staphylococcus aureus; S. aureus 29213, microbroth dilution; read-out: MIC, 29213
[10] = system: Acinetobacter baumannii (A. baumannii) BAA747; experiment: Antibacterial activity, MIC, A. baumannii BAA747; format: cell-based; details: Acinetobacter baumannii; A. baumannii BAA747; read-out: MIC BAA747
[11] = system: E. coli ELZ4251 (MDR clinical isolate); experiment: Antibacterial activity, MIC, MDR E. coli ELZ4251; format: cell-based, Escherichia coli; details: Escherichia coli, E. coli ELZ4251, MDR clinical isolate; read-out: MIC ELZ4251
[12] = system: Moraxella catarrhalis (M. catarrhalis) 25238; experiment: Antibacterial activity, MIC, M. catarrhalis 25238; format: cell-based; details: Moraxella catarrhalis, M. catarrhalis 25238; read-out: MIC 25238
[13] = system: Neisseria meningitidis (N. meningitidis) 13090; experiment: Antibacterial activity, MIC, N. meningitidis 13090; format: cell-based; details: Neisseria meningitidis; N. meningitidis 13090; read-out: MIC 13090

Row | Compound | MIC [1] [mg/L] | MIC [2] [mg/L] | MIC [3] [mg/L] | MIC [4] [mg/L] | MIC [5] [mg/L] | MIC [6] [mg/L] | MIC [7] [mg/L] | MIC [8] [mg/L] | MIC [9] [mg/L] | MIC [10] [mg/L] | MIC [11] [mg/L] | MIC [12] [mg/L] | MIC [13] [mg/L]
1 | CCc1cc(C(=O)O)c(=O)[nH]c1-c1ccc(N2C[C@@H]3[C@H](C2)[C@H]3NCc2ccccc2)cc1 [Cpd 178, 6-{4-[(1R,5S,6s)-6-(benzylamino)-3-azabicyclo[3.1.0]hex-3-yl]phenyl}-5-ethyl-2-oxo-1,2-dihydropyridine-3-carboxylic acid] | < 1 | 12.5 to 150 (≈ 29.1 to 349 µM) | 12.5 to 150 (≈ 29.1 to 349 µM) | 12.5 to 150 (≈ 29.1 to 349 µM) | < 1 | < 1 | 12.5 to 150 (≈ 29.1 to 349 µM) | 12.5 to 150 (≈ 29.1 to 349 µM) | 12.5 to 150 (≈ 29.1 to 349 µM) | 1 to 3.5 (≈ 2.33 to 8.15 µM) | 12.5 to 150 (≈ 29.1 to 349 µM) |  | 
2 | CCc1cc(C(=O)O)c(=O)[nH]c1-c1ccc(N2C[C@@H]3[C@@H](N)[C@@H]3C2)cc1 [Cpd 177, 6-{4-[(1R,5S,6s)-6-amino-3-azabicyclo[3.1.0]hex-3-yl]phenyl}-5-ethyl-2-oxo-1,2-dihydropyridine-3-carboxylic acid] | < 1 | 12.5 to 150 (≈ 36.8 to 442 µM) | 12.5 to 150 (≈ 36.8 to 442 µM) | 12.5 to 150 (≈ 36.8 to 442 µM) | < 1 | < 1 | 12.5 to 150 (≈ 36.8 to 442 µM) | 1 to 3.5 (≈ 2.95 to 10.3 µM) | 12.5 to 150 (≈ 36.8 to 442 µM) | 1 to 3.5 (≈ 2.95 to 10.3 µM) | 12.5 to 150 (≈ 36.8 to 442 µM) | < 1 | < 1
3 | Cc1cc(N2C[C@@H]3[C@@H](N)[C@@H]3C2)ccc1-c1[nH]c(=O)c(C(=O)O)c(O)c1C [Cpd 318, 6-(4-((1R,5S,6s)-6-amino-3-azabicyclo[3.1.0]hexan-3-yl)-2-methylphenyl)-4-hydroxy-5-methyl-2-oxo-1,2-dihydropyridine-3-carboxylic acid] | 12.5 to 150 (≈ 35.2 to 422 µM) |  | 12.5 to 150 (≈ 35.2 to 422 µM) | 12.5 to 150 (≈ 35.2 to 422 µM) | 12.5 to 150 (≈ 35.2 to 422 µM) | 3.5 to 12.5 (≈ 9.85 to 35.2 µM) | 12.5 to 150 (≈ 35.2 to 422 µM) | 12.5 to 150 (≈ 35.2 to 422 µM) | 12.5 to 150 (≈ 35.2 to 422 µM) | 12.5 to 150 (≈ 35.2 to 422 µM) |  |  | 
4 | CN(C)c1ccc(-c2[nH]c(=O)c(C(=O)O)c(O)c2CO)cc1 [Cpd 331, 6-(4-(dimethylamino)phenyl)-4-hydroxy-5-(hydroxymethyl)-2-oxo-1,2-dihydropyridine-3-carboxylic acid] | 12.5 to 150 (≈ 41.1 to 493 µM) |  | 3.5 to 12.5 (≈ 11.5 to 41.1 µM) | 12.5 to 150 (≈ 41.1 to 493 µM) | 12.5 to 150 (≈ 41.1 to 493 µM) | 1 to 3.5 (≈ 3.29 to 11.5 µM) | 12.5 to 150 (≈ 41.1 to 493 µM) | 12.5 to 150 (≈ 41.1 to 493 µM) | 12.5 to 150 (≈ 41.1 to 493 µM) | 12.5 to 150 (≈ 41.1 to 493 µM) |  |  | 
5 | CCc1c(-c2ccc(N3CCC4(CCNC4)C3)cc2)[nH]c(=O)c(C(=O)O)c1O (stereo not drawn) [Cpd 321, 6-(4-(2,7-diazaspiro[4.4]nonan-2-yl)phenyl)-5-ethyl-4-hydroxy-2-oxo-1,2-dihydropyridine-3-carboxylic acid] | 3.5 to 12.5 (≈ 9.13 to 32.6 µM) |  | 12.5 to 150 (≈ 32.6 to 391 µM) | 12.5 to 150 (≈ 32.6 to 391 µM) | 12.5 to 150 (≈ 32.6 to 391 µM) | 1 to 3.5 (≈ 2.61 to 9.13 µM) | 12.5 to 150 (≈ 32.6 to 391 µM) | 12.5 to 150 (≈ 32.6 to 391 µM) | 12.5 to 150 (≈ 32.6 to 391 µM) | 12.5 to 150 (≈ 32.6 to 391 µM) |  |  | 
6 | COCc1c(-c2ccc(N(C)C)cc2)[nH]c(=O)c(C(=O)O)c1O [Cpd 332, 6-(4-(dimethylamino)phenyl)-4-hydroxy-5-(methoxymethyl)-2-oxo-1,2-dihydropyridine-3-carboxylic acid] | 12.5 to 150 (≈ 39.3 to 471 µM) |  | 12.5 to 150 (≈ 39.3 to 471 µM) | 12.5 to 150 (≈ 39.3 to 471 µM) | 12.5 to 150 (≈ 39.3 to 471 µM) | 12.5 to 150 (≈ 39.3 to 471 µM) | 12.5 to 150 (≈ 39.3 to 471 µM) | 12.5 to 150 (≈ 39.3 to 471 µM) | 12.5 to 150 (≈ 39.3 to 471 µM) | 12.5 to 150 (≈ 39.3 to 471 µM) |  |  | 
7 | CCc1c(-c2ccc(N3CC4(CNC4)C3)cc2)[nH]c(=O)c(C(=O)O)c1O [Cpd 324, 6-(4-(2,6-diazaspiro[3.3]heptan-2-yl)phenyl)-5-ethyl-4-hydroxy-2-oxo-1,2-dihydropyridine-3-carboxylic acid] | 12.5 to 150 (≈ 35.2 to 422 µM) |  | 12.5 to 150 (≈ 35.2 to 422 µM) | 12.5 to 150 (≈ 35.2 to 422 µM) | 12.5 to 150 (≈ 35.2 to 422 µM) | 3.5 to 12.5 (≈ 9.85 to 35.2 µM) | 12.5 to 150 (≈ 35.2 to 422 µM) | 12.5 to 150 (≈ 35.2 to 422 µM) | 12.5 to 150 (≈ 35.2 to 422 µM) | 12.5 to 150 (≈ 35.2 to 422 µM) |  |  | 
8 | Cc1c(-c2ccc(N3CCC(N(C)C)C3)nc2)[nH]c(=O)c(C(=O)O)c1O (stereo not drawn) [Cpd 337, 6-(6-(3-(dimethylamino)pyrrolidin-1-yl)pyridin-3-yl)-4-hydroxy-5-methyl-2-oxo-1,2-dihydropyridine-3-carboxylic acid] | 12.5 to 150 (≈ 34.9 to 419 µM) |  | < 1 | 12.5 to 150 (≈ 34.9 to 419 µM) | 12.5 to 150 (≈ 34.9 to 419 µM) | 12.5 to 150 (≈ 34.9 to 419 µM) | 12.5 to 150 (≈ 34.9 to 419 µM) | 12.5 to 150 (≈ 34.9 to 419 µM) | 12.5 to 150 (≈ 34.9 to 419 µM) | 12.5 to 150 (≈ 34.9 to 419 µM) |  |  | 
